Drawing on patent US11591311B2, “3-oxo-6-heteroaryl-2-phenyl-2,3-dihydropyridazine-4-carboxamides” (priority 2017, dated 2023), this text covers IC50 for 3 compounds.

Test [1] concerns the target T1, AHR (Homo sapiens, UniProt P35869).
T1 construct: U87 glioblastoma cells (ATCC) endogenously expressing AHR; host or cells: U87 glioblastoma cells, stably transfected with DRE-firefly luciferase and renilla reporter constructs
T1 sequence (P35869 11-848): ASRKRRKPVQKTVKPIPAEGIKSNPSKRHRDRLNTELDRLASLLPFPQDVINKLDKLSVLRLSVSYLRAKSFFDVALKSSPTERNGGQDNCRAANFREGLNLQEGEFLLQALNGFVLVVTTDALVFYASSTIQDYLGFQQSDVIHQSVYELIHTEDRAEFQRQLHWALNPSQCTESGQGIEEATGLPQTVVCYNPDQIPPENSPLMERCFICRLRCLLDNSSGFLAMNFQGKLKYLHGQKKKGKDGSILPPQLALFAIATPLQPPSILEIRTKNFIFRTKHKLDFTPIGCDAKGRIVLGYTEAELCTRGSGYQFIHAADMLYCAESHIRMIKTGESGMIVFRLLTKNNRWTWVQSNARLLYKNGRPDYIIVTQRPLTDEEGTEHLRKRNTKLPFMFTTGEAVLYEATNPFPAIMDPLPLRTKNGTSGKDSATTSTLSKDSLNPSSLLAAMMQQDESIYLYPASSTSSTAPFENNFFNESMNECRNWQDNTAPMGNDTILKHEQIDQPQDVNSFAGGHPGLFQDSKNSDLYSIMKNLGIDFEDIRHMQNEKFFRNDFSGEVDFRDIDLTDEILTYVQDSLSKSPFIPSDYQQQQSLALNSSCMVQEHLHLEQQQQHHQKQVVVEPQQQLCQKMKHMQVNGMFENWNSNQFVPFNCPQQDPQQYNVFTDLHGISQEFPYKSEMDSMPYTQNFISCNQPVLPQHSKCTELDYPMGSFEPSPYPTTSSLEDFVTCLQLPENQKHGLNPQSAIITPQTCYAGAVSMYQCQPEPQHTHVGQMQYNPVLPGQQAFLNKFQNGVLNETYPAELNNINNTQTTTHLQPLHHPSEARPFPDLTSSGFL
The experiment in a line: In vitro assay 3: AHR-regulated CYP1A1 expression in human cell line (U937, qPCR). Particulars: human monocytic U937 cells, CYP1A1 expression induced with 200 μM KA, 6 hours, quantitative PCR; read-out: Assay 3: Hum CYP1A1 Antagonism IC50. In kind it is cell-based. The protocol: In Vitro Assay 3: AHR-Regulated CYP1A1 Expression in Human Cell Line
To assess the AHR inhibitory activity of the substances described in this application, the ability thereof to antagonise ligand-induced AHR gene regulation in a dose-dependent manner was quantified. For this purpose, quantitative PCR analysis was used to determine expression of the AHR-regulated gene CYP1A1 in a human monocytic U937 cell line upon stimulation with 200 μM KA in the presence and absence of AHR inhibitor. […] CYP1A1 expression was induced with 200 μM KA (positive control) in the presence or absence of the substances for 6 hours. Human U937 cells were typically incubated with eight different concentrations of the substances (1 nM, 3 nM, 10 nM, 30 nM, 100 nM, 300 nM, 1 μM and 3 μM) and analyzed in duplicate on the same microtitre plate. […] Unstimulated cells were used as the negative control. Taqman probes for human CYP1A1 (Hs01054797_g1) and human HPRT (Hs02800695_m1) were used to analyze fold expression of CYP1A1 of HPRT. Quantitation was performed on a Taqman SDS7900HT.
(Quantitative PCR measures a nucleic acid by following its amplification.)

The target of test [2] is T1, AHR. The experiment in a line: In vitro assay 1: AHR-luc transactivation assay, antagonism in human cell line (U87 glioblastoma cells prestimulated with kynurenic acid). In kind it is cell-based. As to the method: Transactivation Assay in Human Cell Line (In Vitro Assays 1 and 2)
Transactivation assays were carried out in U87 glioblastoma cells (ATCC) endogenously expressing AHR. In addition the cells were stably transfected with an AHR inducible firefly luciferase reporter gene construct that carried AHR-binding sites (DRE) in its promoter and a renilla reporter gene construct with constitutively active promoter. Kynurenic acid is an endogenous AHR activating ligand and was used to prestimulate test cells prior to testing the antagonistic properties of compounds.
In Vitro Assay 1: Antagonism in Human Cell Line
Cells in medium (tryptophan free RPMI, 1% FCS, 2 mM Glutamine) supplemented with 150 μM kynurenic acid were grown for 20 hours in absence (negative control) or presence of increasing concentrations of test compounds (typical dilutions: 72 pmol/L, 0.25 nmol/L, 0.89 nmol/L; 3.1 nmol/L, 11 nmol/L, 38 nmol/L, 130 nmol/L, 470 nmol/L, 1.6 μmol/L, 5.7 μmol/L and 20 μmol/L in duplicates). As positive inhibition control cells supplemented with 150 μM kynurenic acid were incubated in presence of 5 μM Staurosporin. Normalization was done by positive and negative controls.
Firefly luciferase and Renilla activity was determined by the DualGlo Luciferase Assay System (Promega, #2920). Renilla activity was used to assess toxic effects of compounds.

Turning to `C[C@@H](NC(=O)c1cc(-c2ccc(N(C)C)nc2)nn(-c2cccc(F)c2)c1=O)C(C)(C)O` [Example 19, 6-[6-(Dimethylamino)pyridin-3-yl]-2-(3-fluorophenyl)-N-[(2R)-3-hydroxy-3-methylbutan-2-yl]-3-oxo-2,3-dihydropyridazine-4-carboxamide], the IC50 was 147 nM in test [1] and 91.9 nM in test [2].
The like results for `COc1ccc(-c2cc(C(=O)N[C@@H](C)CO)c(=O)n(-c3cccc(F)c3)n2)cn1` [Example 21, 2-(3-Fluorophenyl)-N-[(2S)-1-hydroxypropan-2-yl]-6-(6-methoxypyridin-3-yl)-3-oxo-2,3-dihydropyridazine-4-carboxamide] were, in that order, 440 nM and 128 nM.
The matching figures for `C[C@@H](NC(=O)c1cc(-c2ccc(C(F)F)nc2)nn(-c2cccc(F)c2)c1=O)C(C)(C)O` [Example 22, 6-[6-(Difluoromethyl)pyridin-3-yl]-2-(3-fluorophenyl)-N-[(2R)-3-hydroxy-3-methylbutan-2-yl]-3-oxo-2,3-dihydropyridazine-4-carboxamide]: 186 nM and 62.6 nM.

What is called IC50 is the concentration at which inhibition is half-maximal.
